How the values were obtained:
SK-MEL-2 [1] = test: Growth inhibition of human SK-MEL-2 cells assessed as cell growth at 10 uM incubated for 48 hrs by sulforhodamine B assay relative to control; assay type: functional; conditions: SK-MEL-2, 48 h, read-out: Activity
RPMI-8226 = test: Growth inhibition of human RPMI8226 cells incubated for 48 hrs by sulforhodamine B assay; assay type: functional, cell-based; conditions: RPMI-8226, 48 h
NCI-H226 = test: Growth inhibition of human NCI-H226 cells incubated for 48 hrs by sulforhodamine B assay; assay type: functional, cell-based; conditions: NCI-H226, 48 h
SK-MEL-2 [2] = test: Growth inhibition of human SK-MEL-2 cells incubated for 48 hrs by sulforhodamine B assay; assay type: functional, cell-based; conditions: SK-MEL-2, 48 h
SK-MEL-28 [3] = test: Growth inhibition of human SK-MEL-28 cells incubated for 48 hrs by sulforhodamine B assay; assay type: functional, cell-based; conditions: SK-MEL-28, 48 h
OVCAR-3 [4] = test: Growth inhibition of human OVCAR3 cells incubated for 48 hrs by sulforhodamine B assay; assay type: functional, cell-based; conditions: OVCAR-3, 48 h
Hs-578T = test: Growth inhibition of human Hs578T cells incubated for 48 hrs by sulforhodamine B assay; assay type: functional, cell-based
K562 = test: Growth inhibition of human K562 cells assessed as cell growth at 0.01 uM incubated for 48 hrs by sulforhodamine B assay relative to control; assay type: functional; conditions: K562, 48 h, read-out: Activity
SF-295 = test: Growth inhibition of human SF295 cells assessed as cell growth at 0.01 uM incubated for 48 hrs by sulforhodamine B assay relative to control; assay type: functional; conditions: SF-295, 48 h, read-out: Activity
Malme-3M [5] = test: Growth inhibition of human MALME-3M cells assessed as cell growth at 0.01 uM incubated for 48 hrs by sulforhodamine B assay relative to control; assay type: functional; conditions: read-out: Activity
SK-MEL-5 = test: Growth inhibition of human SK-MEL-5 cells assessed as cell growth at 0.01 uM incubated for 48 hrs by sulforhodamine B assay relative to control; assay type: functional; conditions: SK-MEL-5, 48 h, read-out: Activity
OVCAR-3 [6] = test: Growth inhibition of human OVCAR3 cells assessed as cell growth at 0.01 uM incubated for 48 hrs by sulforhodamine B assay relative to control; assay type: functional; conditions: OVCAR-3, 48 h, read-out: Activity
OVCAR-8 = test: Growth inhibition of human OVCAR8 cells assessed as cell growth at 0.01 uM incubated for 48 hrs by sulforhodamine B assay relative to control; assay type: functional; conditions: OVCAR-8, 48 h, read-out: Activity
786-0 = test: Growth inhibition of human 786-0 cells assessed as cell growth at 0.01 uM incubated for 48 hrs by sulforhodamine B assay relative to control; assay type: functional; conditions: 786-0, 48 h, read-out: Activity
ACHN = test: Growth inhibition of human ACHN cells assessed as cell growth at 0.01 uM incubated for 48 hrs by sulforhodamine B assay relative to control; assay type: functional; conditions: read-out: Activity
SNB-75 = test: Growth inhibition of human SNB75 cells assessed as cell growth at 0.1 uM incubated for 48 hrs by sulforhodamine B assay relative to control; assay type: functional; conditions: SNB-75, 48 h, read-out: Activity
SK-MEL-28 [7] = test: Growth inhibition of human SK-MEL-28 cells assessed as cell growth at 0.1 uM incubated for 48 hrs by sulforhodamine B assay relative to control; assay type: functional; conditions: SK-MEL-28, 48 h, read-out: Activity
UACC-62 = test: Growth inhibition of human UACC62 cells assessed as cell growth at 0.1 uM incubated for 48 hrs by sulforhodamine B assay relative to control; assay type: functional; conditions: UACC-62, 48 h, read-out: Activity
SK-OV-3 = test: Growth inhibition of human SKOV3 cells assessed as cell growth at 0.1 uM incubated for 48 hrs by sulforhodamine B assay relative to control; assay type: functional; conditions: SK-OV-3, 48 h, read-out: Activity
MDA-MB-468 = test: Growth inhibition of human MDA-MB-468 cells assessed as cell growth at 0.1 uM incubated for 48 hrs by sulforhodamine B assay relative to control; assay type: functional; conditions: MDA-MB-468, 48 h, read-out: Activity
HL-60(TB) = test: Growth inhibition of human HL-60(TB) cells assessed as cell growth at 1 uM incubated for 48 hrs by sulforhodamine B assay relative to control; assay type: functional; conditions: HL-60, 48 h, read-out: Activity
COLO 205 = test: Growth inhibition of human COLO205 cells assessed as cell growth at 1 uM incubated for 48 hrs by sulforhodamine B assay relative to control; assay type: functional; conditions: COLO 205, 48 h, read-out: Activity
HCC 2998 = test: Growth inhibition of human HCC2998 cells assessed as cell growth at 1 uM incubated for 48 hrs by sulforhodamine B assay relative to control; assay type: functional; conditions: HCC 2998, 48 h, read-out: Activity
HCT-116 = test: Growth inhibition of human HCT116 cells assessed as cell growth at 1 uM incubated for 48 hrs by sulforhodamine B assay relative to control; assay type: functional; conditions: HCT-116, 48 h, read-out: Activity
OVCAR-4 = test: Growth inhibition of human OVCAR4 cells assessed as cell growth at 1 uM incubated for 48 hrs by sulforhodamine B assay relative to control; assay type: functional; conditions: OVCAR-4, 48 h, read-out: Activity
NCI-H23 = test: Growth inhibition of human NCI-H23 cells assessed as cell growth at 100 uM incubated for 48 hrs by sulforhodamine B assay relative to control; assay type: functional; conditions: NCI-H23, 48 h, read-out: Activity
Malme-3M [8] = test: Growth inhibition of human MALME-3M cells assessed as cell growth at 100 uM incubated for 48 hrs by sulforhodamine B assay relative to control; assay type: functional; conditions: read-out: Activity
IGROV-1 = test: Growth inhibition of human IGROV1 cells assessed as cell growth at 100 uM incubated for 48 hrs by sulforhodamine B assay relative to control; assay type: functional; conditions: IGROV-1, 48 h, read-out: Activity
[9] = read-out: LC50 (the source's name)
[10] = read-out: pLC50 (the source's name) (converted)

## COc1cc(Cl)cc(-c2nn(-c3cccc(NC(=O)Nc4ccc(Cl)c(Cl)c4)c3)cc2-c2ccncc2)c1
SK-MEL-2 [1]
  growth at 10 µM: -32.1%
RPMI-8226
  IC50: 0.65 µM
RPMI-8226; read-out: GI50
  GI50: 0.652 µM
RPMI-8226; [9]
  CC50: > 100 µM
RPMI-8226; read-out: TGI
  TGI: 33.7 µM
RPMI-8226; [10]
  CC50: > 100 µM
NCI-H226; read-out: GI50
  GI50: 3.06 µM
NCI-H226; read-out: LC50
  LC50: > 100 µM
NCI-H226; read-out: TGI
  TGI: > 100 µM
NCI-H226; read-out: pGI50 (converted)
  GI50: 3.09 µM
NCI-H226; read-out: pLC50 (converted)
  LC50: > 100 µM
NCI-H226; read-out: pTGI (converted)
  TGI: > 100 µM
SK-MEL-2 [2]; read-out: GI50
  GI50: 1.54 µM
SK-MEL-2 [2]; [9]
  CC50: 8.54 µM
SK-MEL-2 [2]; read-out: TGI
  TGI: 37.4 µM
SK-MEL-2 [2]; read-out: pGI50 (converted)
  GI50: 1.62 µM
SK-MEL-2 [2]; [10]
  CC50: 8.51 µM
SK-MEL-2 [2]; read-out: pTGI (converted)
  TGI: 3.72 µM
SK-MEL-28 [3]; read-out: GI50
  GI50: 2.96 µM
SK-MEL-28 [3]; [9]
  CC50: > 100 µM
SK-MEL-28 [3]; read-out: TGI
  TGI: 35.6 µM
SK-MEL-28 [3]; read-out: pGI50 (converted)
  GI50: 2.95 µM
SK-MEL-28 [3]; [10]
  CC50: > 100 µM
SK-MEL-28 [3]; read-out: pTGI (converted)
  TGI: 37.2 µM
OVCAR-3 [4]
  IC50: 1.56 µM
OVCAR-3 [4]; read-out: GI50
  GI50: 1.56 µM
OVCAR-3 [4]; [9]
  CC50: > 100 µM
OVCAR-3 [4]; read-out: TGI
  TGI: 29.4 µM
OVCAR-3 [4]; read-out: pGI50 (converted)
  GI50: 1.55 µM
OVCAR-3 [4]; [10]
  CC50: > 100 µM
OVCAR-3 [4]; read-out: pTGI (converted)
  TGI: 29.5 µM
Hs-578T; read-out: GI50
  GI50: 3.59 µM
Hs-578T; [9]
  CC50: > 100 µM
Hs-578T; read-out: TGI
  TGI: > 100 µM
Hs-578T; read-out: pGI50 (converted)
  GI50: 3.89 µM
Hs-578T; [10]
  CC50: > 100 µM
Hs-578T; read-out: pTGI (converted)
  TGI: > 100 µM
K562
  growth at 0.01 µM: 101%
SF-295
  growth at 0.01 µM: 87%
Malme-3M [5]
  growth at 0.01 µM: 92%
SK-MEL-5
  growth at 0.01 µM: 95%
OVCAR-3 [6]
  growth at 0.01 µM: 100%
OVCAR-8
  growth at 0.01 µM: 96%
786-0
  growth at 0.01 µM: 100%
ACHN
  growth at 0.01 µM: 102%
SNB-75
  growth at 0.1 µM: 90%
SK-MEL-28 [7]
  growth at 0.1 µM: 103%
UACC-62
  growth at 0.1 µM: 97%
SK-OV-3
  growth at 0.1 µM: 90%
MDA-MB-468
  growth at 0.1 µM: 97%
HL-60(TB)
  growth at 1 µM: 91%
COLO 205
  growth at 1 µM: 91%
HCC 2998
  growth at 1 µM: 91%
HCT-116
  growth at 1 µM: 71%
OVCAR-4
  growth at 1 µM: 83%
NCI-H23
  growth at 100 µM: -20%
Malme-3M [8]
  growth at 100 µM: -24%
IGROV-1
  growth at 100 µM: 8%
